Measurements taken from patent US6492329B1, “Cytokine and hemopoietic factor endogenous production enhancer and methods of use thereof” (Novelos Therapeutics, Inc., priority 1995, dated 2002).

How the values were obtained:
leukemia L1210 cells [1] = assay: Leukemia L1210 in mice: ascitic fluid and survival (Example 14); conditions: for Accumulation of ascitic (weight gain, %): leukemia L1210
Procedure: (§6) An influence of 7 day course of test article daily administration was studied in respect of tumor progression, which was estimated using the two integral indices: pace of mouse weight gain due to accumulation of ascitic fluid, and by animal mean survival time after inoculation.
(§7) The study was carried out on DBA/2 mice weighing 18-21 g. First, tumor cell passage was performed using 6 animals for each cell line. For this, cells kept at the temperature of the liquid nitrogen were de-frozen and adjusted to the concentration of 5×10^6 cells/mL by sterile Hanks' solution. Then, 6 mice were intra peritoneally inoculated with 0.2 mL of each line cellular suspension.
(§8) Ascitic fluid was collected 6 days after the inoculation with L1210 cells, 8 days after the inoculation with P388 ones and 18 days after inoculation with Erlich adenocarcinoma cells. Thus obtained, the samples of passaged tumor cells were used for the main experiments. The fluid liquid was dissolved by sterile Hanks' solution so that cell concentration be 5×10^6 cells/mL for P388 cells and Erlich adenocarcinoma cells, 5×10^5 cells/mL for L1210 cells.
(§9) Eleven groups of animals with no less than 15 mice each were formed for experiments with either tumor cell line. Mice were inoculated with 0.2 mL of resultant cell suspensions per mouse (10^6 P388 and Erlich adenocarcinoma cells/mouse, and 10^5 L1210 cells/mouse). 24 hours after the tumor cells inoculation, animals were given the first injections of the test articles or vehicles. The test article injections were made daily till the 14th day of the experiment or till the animal death. The volume of solutions injected comprised 0.01 mL/g body weight.
(§10) #1—intact animals receiving imitation of tumor cell inoculation (injection of normal saline) which further were treated with normal saline throughout the entire experiment;
(§11) #2—control animals, inoculated with tumor cells, which further were treated with test article vehicle (normal saline);

normal human lymphocytes = assay: Proliferation/apoptosis of normal human lymphocytes (cell number per well, flow cytofluorometry); type: cell-based
[2] = tested on: Erlich adenocarcinoma cells; assay: Erlich adenocarcinoma in mice: ascitic fluid and survival (Example 14); conditions: for Accumulation of ascitic (weight gain, %): Erlich adenocarcinoma
Procedure: as §6, §7, §8, §9, §10, §11

[3] = tested on: e-ras cell line (REF transformed with E1A and ras-oncogene); assay: Number of clones of e-ras cells throughout 72-hr incubation; type: cell-based, rat
Procedure: (§1) To this end, these substances had been incubated for 72 hours with cells of rat embrional fibroblasts (REF) and the same cells, transformed with adenoviral E1A gene in complementation with ras-oncogene (e-ras cell line). Subsequent evaluation of the cellularity of experimental samples was carried out by counting the quantity of cell per milliliter (for REF cell line) or clones in dish (for e-ras cell line).
(§2) Cells were cultivated on DMEM medium supplemented with 10% fetal calf serum and […] gentamicin. Cultivation was carried out in Petri dishes.
(§3) E-ras cells were seeded at a cell density of 300 cells per 5 cm dish. 7 days after growth of e-ras cells had been started the quantity of clones was evaluated and the test articles were added into the dishes.
(§4) For the test-system for estimation of apoptosis regulation UV-induced cell death was triggered in a dose of 4 Dj. Test articles were added immediately after irradiation. Then, the quantity of cell per milliliter (for REF cell line) or clones in dish (for e-ras cell line) were monitored every 24 hours. For determination of DNA-fragmentation the electrophoresis in agarose gel was used at standard settings.

leukemia L1210 cells [4] = assay: Leukemia L1210 in mice: serum cytokines, ascitic fluid, survival (Example 5); conditions: for Accumulation of ascitic fluid (weight gain) / Concentration in serum: IFNα / Concentration in serum: IL-1 / Concentration in serum: IL-2 / Concentration in serum: IL-6 / Concentration in serum: TNFα: L1210 mice
Procedure: (§12) An influence of 7 day course of test article daily administration was studied in respect of variations of serum cytokine levels (IL-1, IL-2, IL-6, IFNα, TNF). In parallel, the tumor progression was estimated using the two integral indices: pace of mouse weight gain due to accumulation of ascitic fluid, and by animal mean survival time after inoculation.
(§13) The study was carried out on DBA/2 mice weighing 18-21 g. First, tumor cell passage was performed using 6 animals for each cell line. For this, cells kept at the temperature of the liquid nitrogen were de-frozen and adjusted to the concentration of 5×10^6 cells/mL by sterile Hanks' solution. Then, 6 mice were intraperitoneally inoculated with 0.2 mL of each line cellular suspension.
(§14) Ascitic fluid was collected 6 days after the inoculation with L1210 cells and 8 days after the inoculation with P388 ones. Thus obtained, the samples of passaged tumor cells were used for the main experiments. The fluid liquid was dissolved by sterile Hanks' solution so that cell concentration be 5×10^6 cells/mL for P388 cells and 5×10^5 cells/mL for L1210 cells.
(§15) Nine groups of animals with no less than 15 mice each were formed for experiments with either tumor cell line. Mice were inoculated with 0.2 mL of resultant cell suspensions per mouse (10^6 P388 cells/mouse, and 10^5 L1210 cells/mouse). 24 hours after the tumor cells inoculation. animals were given the first injections of the test articles or vehicles. The test article injections were made daily till the 14th day of the experiment or until the animal's death. The volume of solutions injected comprised 0.01 mL/g body weight.
as §10, §11

[5] = tested on: rat embrional fibroblasts (REF) after UV-irradiation; assay: Number of REF cells after UV-irradiation; type: cell-based
Procedure: as §1, §2
(§5) REF cells was cultivated with initial density of 800 000 cell per mL, evaluation of the cellularity was performed at 0, 24, 48 and 72 hours of incubation with the test articles.
as §4

[6] = tested on: e-ras cells after UV-irradiation; assay: Number of clones of e-ras cells after UV-irradiation; type: cell-based, rat
Procedure: as §1, §2, §3, §4

leukemia P388 cells [7] = assay: Leukemia P388 in mice: serum cytokines, ascitic fluid, survival (Example 5); conditions: for Accumulation of ascitic fluid (weight gain) / Concentration in serum: IFNα / Concentration in serum: IL-1 / Concentration in serum: IL-2 / Concentration in serum: IL-6 / Concentration in serum: TNFα: P388 mice
Procedure: as §12, §13, §14, §15, §10, §11

leukemia P388 cells [8] = assay: Leukemia P388 in mice: ascitic fluid and survival (Example 14); conditions: for Accumulation of ascitic (weight gain, %): leukemia P388
Procedure: as §6, §7, §8, §9, §10, §11

[9] = tested on: rat embrional fibroblasts (REF); assay: Number of REF cells throughout 72-hr incubation; type: cell-based
Procedure: as §1, §2, §5, §4

HL-60 cells = assay: Proliferation/apoptosis of HL-60 tumor cells (cell number per well, flow cytofluorometry)
Procedure: Subsequent evaluation of the cell cycle parameters was carried out by the flow cytofluorometry technique.
A mononuclear fraction of blood leukocytes were obtained by centrifugation in gradient of fikoll-metrizoat (Histopaque, Sigma). […] Cell viability was estimated by the Trypan blue exclusion method, then the cell suspension was placed into wells of 96-well microtiter plates—200,000 cells per well. […] Cultivation was carried out in closed flasks, the medium volume was 12 mL, it was changed every four days by centrifugation. The nature of the cells growth was suspensive. […] 50 μL of each test solution were added to one or the other cell culture and thereafter cells were cultivated for 24-96 hours. Then, they were tested by the flow cytofluorometry to estimate DNA content in the cell nuclei. In case of apoptosis-like cellular death, the portion of cell nuclei with normal content of DNA became reduced, while the portion of cell nuclei containing abnormally small DNA quantity became larger.
The analysis procedure was the following: after incubation completion, cells were centrifuged and transferred to a standard phosphate isotonic buffer pH 7.4, containing RNA-ase A (20 μg/mL), ethidium bromide (fluorometric indicator for double stranded nucleic acid. 10 μg/mL) and MgCl2 (5 mM). After the cells were disintegrated by nonionic detergent Triton X-100 (final concentration 0.1%). The suspension of cell nuclei thus obtained was analyzed by flow cytofluorometry with an argon laser as a source of light (wave length 488 nm). The red fluorescence due to DNA bound ethidium bromide was taken to be the measure of DNA content in the cell nuclei.

O=c1[nH]cnc2c1ncn2[C@@H]1O[C@H](CO)[C@@H](O)[C@H]1O [0.1% inosine, hypoxanthine-9-D-ribofuranoside]
Accumulation of ascitic (weight gain, %) (leukemia L1210 cells [1]; number of injection 0): 0.56 ± 0.2% | Accumulation of ascitic (weight gain, %) (leukemia L1210 cells [1]; number of injection 3): 7.9 ± 0.4% | Accumulation of ascitic (weight gain, %) (leukemia L1210 cells [1]; number of injection 7): 26.6 ± 2.4% | Mean survival time (leukemia L1210 cells [1]; mice inoculated with leukemia L1210 cells): 9.8 ± 0.6 | number of normal lymphocytes per well (normal human lymphocytes; 24 hours incubation): 26 ± 4 × 10^4 cells | number of normal lymphocytes per well (normal human lymphocytes; 48 hours incubation): 78 ± 7 × 10^4 cells | number of normal lymphocytes per well (normal human lymphocytes; 72 hours incubation): 141 ± 12 × 10^4 cells | number of normal lymphocytes per well (normal human lymphocytes; 96 hours incubation): 216 ± 16 × 10^4 cells | Accumulation of ascitic (weight gain, %) ([2]; number of injection 0): 0.8 ± 0.2% | Accumulation of ascitic (weight gain, %) ([2]; number of injection 3): 11.9 ± 0.2% | Accumulation of ascitic (weight gain, %) ([2]; number of injection 7): 26.8 ± 2.1% | Mean survival time ([2]; mice inoculated with Erlich adenocarcinoma cells): 10.1 ± 0.6 | number of clones of e-ras cells (M ± m) ([3]; 0 hours of incubation): 292 ± 11 | number of clones of e-ras cells (M ± m) ([3]; 24 hours of incubation): 290 ± 8 | number of clones of e-ras cells (M ± m) ([3]; 48 hours of incubation): 269 ± 8 | number of clones of e-ras cells (M ± m) ([3]; 72 hours of incubation): 243 ± 8 | Accumulation of ascitic fluid (weight gain) (leukemia L1210 cells [4]; 0 injections): 0.61% | Concentration in serum: IFNα (leukemia L1210 cells [4]; 0 injections): 117.3 pg/mL | Concentration in serum: IL-1 (leukemia L1210 cells [4]; 0 injections): 41.0 pg/mL | Concentration in serum: IL-2 (leukemia L1210 cells [4]; 0 injections): 17.80 pg/mL | Concentration in serum: IL-6 (leukemia L1210 cells [4]; 0 injections): 108. pg/mL | Concentration in serum: TNFα (leukemia L1210 cells [4]; 0 injections): 104.3 pg/mL | Accumulation of ascitic fluid (weight gain) (leukemia L1210 cells [4]; 3 daily injections): 7.02% | Concentration in serum: IFNα (leukemia L1210 cells [4]; 3 daily injections): 160.0 pg/mL | Concentration in serum: IL-1 (leukemia L1210 cells [4]; 3 daily injections): 55.6 pg/mL | Concentration in serum: IL-2 (leukemia L1210 cells [4]; 3 daily injections): 22.3 pg/mL | Concentration in serum: IL-6 (leukemia L1210 cells [4]; 3 daily injections): 91.0 pg/mL | Concentration in serum: TNFα (leukemia L1210 cells [4]; 3 daily injections): 130.0 pg/mL | Accumulation of ascitic fluid (weight gain) (leukemia L1210 cells [4]; 7 daily injections): 26.30% | Concentration in serum: IFNα (leukemia L1210 cells [4]; 7 daily injections): 205. pg/mL | Concentration in serum: IL-1 (leukemia L1210 cells [4]; 7 daily injections): 36.40 pg/mL | Concentration in serum: IL-2 (leukemia L1210 cells [4]; 7 daily injections): 14.6 pg/mL | Concentration in serum: IL-6 (leukemia L1210 cells [4]; 7 daily injections): 119. pg/mL | Concentration in serum: TNFα (leukemia L1210 cells [4]; 7 daily injections): 157.0 pg/mL | Mean survival time (leukemia L1210 cells [4]; mice inoculated with leukemia L1210 cells, daily injections till day 14 or death): 9.61 ± 0.18 | number of REF cells after UV-irradiation (M ± m) ([5]; 0 hours): 811 ± 10 × 10^3 cells | number of REF cells after UV-irradiation (M ± m) ([5]; 24 hours): 426 ± 24 × 10^3 cells | number of REF cells after UV-irradiation (M ± m) ([5]; 48 hours): 262 ± 22 × 10^3 cells | number of REF cells after UV-irradiation (M ± m) ([5]; 72 hours): 234 ± 28 × 10^3 cells | number of clones of e-ras cells after UV-irradiation (M ± m) ([6]; 0 hours): 292 ± 11 | number of clones of e-ras cells after UV-irradiation (M ± m) ([6]; 24 hours): 190 ± 8 | number of clones of e-ras cells after UV-irradiation (M ± m) ([6]; 48 hours): 129 ± 8 | number of clones of e-ras cells after UV-irradiation (M ± m) ([6]; 72 hours): 93 ± 8 | Accumulation of ascitic fluid (weight gain) (leukemia P388 cells [7]; 0 injections): 0.58 ± 0.13% | Concentration in serum: IFNα (leukemia P388 cells [7]; 0 injections): 81.4 ± 6.13 pg/mL | Concentration in serum: IL-1 (leukemia P388 cells [7]; 0 injections): 36.7 ± 5.12 pg/mL | Concentration in serum: IL-2 (leukemia P388 cells [7]; 0 injections): 16.50 ± 1.09 pg/mL | Concentration in serum: IL-6 (leukemia P388 cells [7]; 0 injections): 115.0 ± 12.5 pg/mL | Concentration in serum: TNFα (leukemia P388 cells [7]; 0 injections): 122.0 ± 10.0 pg/mL | Accumulation of ascitic fluid (weight gain) (leukemia P388 cells [7]; 3 daily injections): 6.8 ± 0.8% | Concentration in serum: IFNα (leukemia P388 cells [7]; 3 daily injections): 105. ± 11.3 pg/mL | Concentration in serum: IL-1 (leukemia P388 cells [7]; 3 daily injections): 48.2 ± 7.13 pg/mL | Concentration in serum: IL-2 (leukemia P388 cells [7]; 3 daily injections): 20.19 ± 1.54 pg/mL | Concentration in serum: IL-6 (leukemia P388 cells [7]; 3 daily injections): 90.0 ± 7.11 pg/mL | Concentration in serum: TNFα (leukemia P388 cells [7]; 3 daily injections): 96.5 ± 8.7 pg/mL | Accumulation of ascitic fluid (weight gain) (leukemia P388 cells [7]; 7 daily injections): 25.0 ± 2.22% | Concentration in serum: IFNα (leukemia P388 cells [7]; 7 daily injections): 184. ± 16.1 pg/mL | Concentration in serum: IL-1 (leukemia P388 cells [7]; 7 daily injections): 31.0 ± 5.12 pg/mL | Concentration in serum: IL-2 (leukemia P388 cells [7]; 7 daily injections): 13.40 ± 1.68 pg/mL | Concentration in serum: IL-6 (leukemia P388 cells [7]; 7 daily injections): 129.0 ± 10.4 pg/mL | Concentration in serum: TNFα (leukemia P388 cells [7]; 7 daily injections): 144.8 ± 12.9 pg/mL | Mean survival time (leukemia P388 cells [7]; mice inoculated with leukemia P388 cells, daily injections till day 14 or death): 9.8 ± 0.21 | Accumulation of ascitic (weight gain, %) (leukemia P388 cells [8]; number of injection 0): 0.5 ± 0.2% | Accumulation of ascitic (weight gain, %) (leukemia P388 cells [8]; number of injection 3): 3.9 ± 0.4% | Accumulation of ascitic (weight gain, %) (leukemia P388 cells [8]; number of injection 7): 16.6 ± 2.6% | Mean survival time (leukemia P388 cells [8]; mice inoculated with leukemia P388 cells): 21.8 ± 0.6 | number of REF cells (M ± m) ([9]; 0 hours of incubation): 811 ± 10 × 10^3 cells | number of REF cells (M ± m) ([9]; 24 hours of incubation): 1426 ± 24 × 10^3 cells | number of REF cells (M ± m) ([9]; 48 hours of incubation): 2642 ± 25 × 10^3 cells | number of REF cells (M ± m) ([9]; 72 hours of incubation): 5034 ± 128 × 10^3 cells | number of HL-60 cells per well (HL-60 cells; 24 hours incubation): 96 ± 8 × 10^4 cells | number of HL-60 cells per well (HL-60 cells; 48 hours incubation): 152 ± 8 × 10^4 cells | number of HL-60 cells per well (HL-60 cells; 72 hours incubation): 312 ± 21 × 10^4 cells | number of HL-60 cells per well (HL-60 cells; 96 hours incubation): 527 ± 18 × 10^4 cells
